The structures appear in SMILES notation.

What all share (format): in vivo
For test [1], the system named is Echinochloa crus-galli (ECHCG). As to the kind of experiment: Pre-emergence herbicidal activity, Echinochloa crus-galli. Also noted: key: 5=total damage to plant; 0=no damage to plant. The conditions noted are these: 1000 g/ha, evaluated after 13 days, Test 1b. The gist of the method: (§1)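 Damage is rated on a 0–5 scale (0 = no damage, 5 = total damage) 13 days after treatment. Pots of sown seed are sprayed one day after sowing with an aqueous solution from acetone/water (50:50) with 0.5% Tween 20, then kept under controlled glasshouse conditions.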

Test [2] deals with Zea Mays (ZEAMX). As to the kind of experiment: Post-emergence herbicidal activity, Zea Mays. On the set-up: key: 5=total damage to plant; 0=no damage to plant. The conditions noted are these: 1000 g/ha, evaluated after 13 days, Test 2b. The protocol: (§2) Seeds of a variety of test species were sown in standard soil in pots: Triticum aestivium (TRZAW), Avena fatua (AVEFA), Alopecurus myosuroides (ALOMY), Echinochloa crus-galli (ECHCG), Lolium perenne (LOLPE), Zea Mays (ZEAMX), Abutilon theophrasti (ABUTH), Amaranthus retroflexus (AMARE) and Setaria faberi (SETFA). After 8 days cultivation (post-emergence) under controlled conditions in a glasshouse (at 24/16° C., day/night; 14 hours light; 65% humidity), the plants were sprayed with an aqueous spray solution derived from the formulation of the technical active ingredient in acetone/water (50:50) solution containing 0.5% Tween 20 (polyoxyethelyene sorbitan monolaurate, CAS RN 9005-64-5). The test plants were then grown in a glasshouse under controlled conditions (at 24/16° C., day/night; 14 hours light; 65% humidity) and watered twice daily. After 13 days, the test was evaluated (5=total damage to plant; 0=no damage to plant).

Test [3] concerns Lolium perenne (LOLPE). Briefly: Post-emergence herbicidal activity, Lolium perenne. On the set-up: key: 5=total damage to plant; 0=no damage to plant. The settings on record: 1000 g/ha, evaluated after 13 days, Test 2b. Summed up:
(§3)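 Pot-grown plants sprayed 8 days after sowing with compound in acetone/water (50:50) containing 0.5% Tween 20, in a glasshouse at 24/16 °C day/night, 14 h light, 65% humidity. Damage scored 13 days after spraying on a 0–5 scale (5 = total damage, 0 = none).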

Test [4] has as its system Amaranthus retroflexus (AMARE). As to the kind of experiment: Post-emergence herbicidal activity, Amaranthus retroflexus. The conditions noted are these: 1000 g/ha, evaluated after 13 days, Test 2b. Also noted: key: 5=total damage to plant; 0=no damage to plant. As to the method:
as §2

Test [5] has as its system Echinochloa crus-galli (ECHCG). As to the kind of experiment: Post-emergence herbicidal activity, Echinochloa crus-galli. The settings on record: 1000 g/ha, evaluated after 13 days, Test 2b. The gist of the method: as §3
Test [6] concerns Amaranthus retroflexus (AMARE). As to the kind of experiment: Pre-emergence herbicidal activity, Amaranthus retroflexus. On the set-up: key: 5=total damage to plant; 0=no damage to plant. The settings on record: 1000 g/ha, evaluated after 13 days, Test 1b. The protocol:
(§4) Seeds of a variety of test species were sown in standard soil in pots: Triticum aestivium (TRZAW), Avena fatua (AVEFA), Alopecurus myosuroides (ALOMY), Echinochloa crus-galli (ECHCG), Lolium perenne (LOLPE), Zea Mays (ZEAMX), Abutilon theophrasti (ABUTH), Amaranthus retroflexus (AMARE) and Setaria faberi (SETFA). After cultivation for one day (pre-emergence) under controlled conditions in a glasshouse (at 24/16° C., day/night; 14 hours light; 65% humidity), the plants were sprayed with an aqueous spray solution derived from the formulation of the technical active ingredient in acetone/water (50:50) solution containing 0.5% Tween 20 (polyoxyethelyene sorbitan monolaurate, CAS RN 9005-64-5). The test plants were then grown in a glasshouse under controlled conditions (at 24/16°, day/night; 14 hours light; 65% humidity) and watered twice daily. After 13 days, the test was evaluated (5=total damage to plant; 0=no damage to plant).

Test [7] relates to Zea Mays (ZEAMX). Briefly: Pre-emergence herbicidal activity, Zea Mays. Also noted: key: 5=total damage to plant; 0=no damage to plant. The conditions noted are these: 1000 g/ha, evaluated after 13 days, Test 1b. The protocol: as §4
Test [8] has as its system Setaria faberi (SETFA). Briefly: Post-emergence herbicidal activity, Setaria faberi. Also noted: key: 5=total damage to plant; 0=no damage to plant. The conditions noted are these: 1000 g/ha, evaluated after 13 days, Test 2b. Summed up: as §3
Test [9] has as its system Lolium perenne (LOLPE). As to the kind of experiment: Pre-emergence herbicidal activity, Lolium perenne. Also noted: key: 5=total damage to plant; 0=no damage to plant. The conditions noted are these: 1000 g/ha, evaluated after 13 days, Test 1b. Summed up: as §1
The test system of test [10] is Setaria faberi (SETFA). As to the kind of experiment: Pre-emergence herbicidal activity, Setaria faberi. Also noted: key: 5=total damage to plant; 0=no damage to plant. The settings on record: 1000 g/ha, evaluated after 13 days, Test 1b. Summed up: as §1
Test [11] has as its system Abutilon theophrasti (ABUTH). Briefly: Post-emergence herbicidal activity, Abutilon theophrasti. Also noted: key: 5=total damage to plant; 0=no damage to plant. The settings on record: 1000 g/ha, evaluated after 13 days, Test 2b. As to the method:
as §2

Test [12] concerns Abutilon theophrasti (ABUTH). As to the kind of experiment: Pre-emergence herbicidal activity, Abutilon theophrasti. Also noted: key: 5=total damage to plant; 0=no damage to plant. The conditions noted are these: 1000 g/ha, evaluated after 13 days, Test 1b. As to the method:
as §4

Turning to `CN(C(=O)OC(C)(C)C)c1ccc(-c2cccnc2)nc1C(F)(F)F` [Compound B22], the “ECHCG damage score (0-5)” value was found to be 3 in [1] and 4 in test [5]. For the same compound, the “ZEAMX damage score (0-5)” value in [2] is reported as 2; in [7], 0. The “LOLPE damage score (0-5)” value in test [3] is 3; in [9], 1. The “AMARE damage score (0-5)” value in [4] is on record as 0; in test [6] it was 1. Further, the “SETFA damage score (0-5)” value in test [8] and in test [10] was 4 in each case. Also, the entries for the “ABUTH damage score (0-5)” value in test [11] and in [12] were 0 and 1, respectively.

With `COc1cncc(-c2ccc(NC(=O)OC(C)(C)C)c(C)n2)c1` [Compound B23], the “ECHCG damage score (0-5)” value is reported as 1 in test [1] and 2 in test [5]. In addition, the “ZEAMX damage score (0-5)” value in test [2] came to 5; in test [7] it was 1. For the same compound, the “LOLPE damage score (0-5)” value was found to be 2 in [3] and 1 in test [9]. For the same compound, the “AMARE damage score (0-5)” value in test [4] and in test [6] was 1 each time. Further, the “SETFA damage score (0-5)” value in test [8] is 3; in [10] it was 4. Besides, the “ABUTH damage score (0-5)” value in [11] and in [12] was 1 in each case.

`CC(C)OC(=O)Nc1ccc(-c2cncc(F)c2)nc1C(F)(F)F` [Compound B16, isopropyl N-[6-(5-fluoro-3-pyridyl)-2-(trifluoromethyl)-3-pyridyl]carbamate]: the “ECHCG damage score (0-5)” value in [1] is 3; in [5] it was 4. Further, the “ZEAMX damage score (0-5)” value in [2] and in test [7] was 5 in each case. Besides, the results for the “LOLPE damage score (0-5)” value in [3] and in test [9] were 3 and 1, respectively. The “AMARE damage score (0-5)” value in test [4] and in [6] was 0 each time. For the same compound, the “SETFA damage score (0-5)” value was found to be 5 in test [8] and 4 in test [10]. Moreover, the “ABUTH damage score (0-5)” value in test [11] and in [12] was 0 throughout.

As to `CCOC(=O)Nc1ccc(-c2cncc(F)c2)nc1C(F)(F)F` [Compound B15, ethyl N-[6-(5-fluoro-3-pyridyl)-2-(trifluoromethyl)-3-pyridyl]carbamate], the “ECHCG damage score (0-5)” value is 1 in test [1] and 3 in test [5]. In addition, the “ZEAMX damage score (0-5)” value in test [2] is given as 5; in [7], 4. Besides, the “LOLPE damage score (0-5)” value in test [3] came out at 2; in test [9] it was 0. For the same compound, the “AMARE damage score (0-5)” value is listed as 1 in [4] and 0 in test [6]. The “SETFA damage score (0-5)” value in [8] and in test [10] was 4 throughout. Also, the “ABUTH damage score (0-5)” value in test [11] and in [12] was 0 each time.

As for `Cc1nc(-c2cccnc2)ccc1NC(=O)OC(C)(C)C` [Compound B25], the “ECHCG damage score (0-5)” value in test [1] was determined as 2; in [5] it was 3. Besides, the entries for the “ZEAMX damage score (0-5)” value in test [2] and in [7] were 4 and 3, respectively. Moreover, the “LOLPE damage score (0-5)” value was found to be 4 in test [3] and 2 in [9]. For the same compound, the “AMARE damage score (0-5)” value is given as 2 in test [4] and 1 in test [6]. In addition, the “SETFA damage score (0-5)” value in test [8] and in test [10] was 5 each time. The “ABUTH damage score (0-5)” value stood at 2 in test [11] and 1 in [12].

Consider `CC(C)(C)OC(=O)Nc1ccc(-c2cncnc2)nc1Cl` [Compound B27], for which the “ECHCG damage score (0-5)” value in [1] and in [5] was 4 in each case. Also, the “ZEAMX damage score (0-5)” value is on record as 3 in [2] and 2 in test [7]. Also, the “LOLPE damage score (0-5)” value in test [3] is 2; in [9], 1. For the same compound, the “AMARE damage score (0-5)” value was 2 in test [4] and 0 in [6]. For the same compound, the results for the “SETFA damage score (0-5)” value in test [8] and in test [10] were 5 and 4, respectively. Moreover, the results for the “ABUTH damage score (0-5)” value in test [11] and in test [12] were 2 and 0, respectively.

Turning to `CN(C(=O)OC(C)(C)C)c1ccc(-c2cncc(C(F)(F)F)c2)nc1C(F)(F)F` [Compound B17], the entries for the “ECHCG damage score (0-5)” value in test [1] and in test [5] were 0 and 1, respectively. Further, the “ZEAMX damage score (0-5)” value in test [2] turned out to be 1; in [7], 0. The “LOLPE damage score (0-5)” value in test [3] and in test [9] was 0 in each case. The “AMARE damage score (0-5)” value in [4] and in test [6] was 0 throughout. The “SETFA damage score (0-5)” value came to 1 in test [8] and 0 in test [10]. Further, the “ABUTH damage score (0-5)” value in test [11] and in [12] was 0 in each case.

For the compound `Cc1nc(-c2cncc(C(F)(F)F)c2)ccc1NC(=O)OC(C)(C)C` [Compound B24], the figures for the “ECHCG damage score (0-5)” value in test [1] and in [5] were 0 and 2, respectively. In addition, the “ZEAMX damage score (0-5)” value was found to be 2 in [2] and 1 in [7]. Moreover, the “LOLPE damage score (0-5)” value in test [3] was 1; in [9], 0. In addition, the “AMARE damage score (0-5)” value in test [4] is 2; in [6], 1. Further, the “SETFA damage score (0-5)” value in test [8] is given as 2; in test [10], 1. Moreover, the “ABUTH damage score (0-5)” value in [11] and in [12] was 1 throughout.

Turning to `Cc1nc(-c2cncnc2)ccc1NC(=O)OC(C)(C)C` [Compound B28], the “ECHCG damage score (0-5)” value in test [1] stood at 2; in test [5], 4. Also, the results for the “ZEAMX damage score (0-5)” value in [2] and in test [7] were 5 and 3, respectively. Besides, the “LOLPE damage score (0-5)” value in [3] is 4; in test [9], 1. In addition, the “AMARE damage score (0-5)” value in [4] and in [6] was 0 throughout. For the same compound, the “SETFA damage score (0-5)” value in [8] worked out at 4; in [10], 2. Also, the “ABUTH damage score (0-5)” value in [11] and in test [12] was 0 throughout.

Consider `CN(C(=O)OC(C)(C)C)c1ccc(-c2cncc(F)c2)nc1C(F)(F)F` [Compound B29, tert-butyl N-[6-(5-fluoro-3-pyridyl)-2-(trifluoromethyl)-3-pyridyl]-N-methyl-carbamate], for which the “ECHCG damage score (0-5)” value in [1] and in test [5] was 4 throughout. The “ZEAMX damage score (0-5)” value was 5 in test [2] and 3 in test [7]. The “LOLPE damage score (0-5)” value in [3] amounted to 3; in [9] it was 1. In addition, the “AMARE damage score (0-5)” value came out at 1 in test [4] and 2 in [6]. In addition, the “SETFA damage score (0-5)” value came out at 5 in [8] and 4 in test [10]. Also, the “ABUTH damage score (0-5)” value in test [11] and in test [12] was 1 throughout.
